Patent publication US20250288509A1, “Composition for Promoting Photoprotection and Cutaneous Regeneration through Sequential Photonic Transfer (SPT)” (priority 2022, published 2025)

Legend:
[1] = Continuous absorption spectra of flavonoids, cannabinoids and chlorophylls; assay type: physicochemical; details: continuous absorption spectrum, FIG. 3A/3B
Source text: (§1) For the in vitro validation of the Sequential Photonic Transfer (SPT) process, different molecules belonging to the groups of plant-derived compounds previously identified as potential targets have been selected. In particular, the selected molecules are morin and quercetin (flavonoids), cannabinol (CBN), cannabidiol (CBD), and cannabichromene (CBC) (cannabinoids), and chlorophyll A, which are fully representative examples of each target compound group. […] Flavonoids typically have absorption peaks around 260 and 380 nm, while cannabinoids have absorption peaks between 230 and 300 nm (FIG. 3A). […] For these compounds, their emission capacity at 460 nm (blue light) when excited by 280 and 320 nm light (UVB/A) and their emission capacity at 625 nm (red light) when excited by 460 nm light have been evaluated using spectrofluorimetry.
(§2) FIG. 3. […] Spectrofluorimetric quantification in hydroalcoholic standard solutions of emission at 460 nm (blue region of the electromagnetic spectrum) of different compounds after excitation at 280 or 320 nm (UVB/A) (C) and of emission at 625 nm (red region of the electromagnetic spectrum) after excitation at 460 nm (D) (Mn: Morin; Qc: Quercetin; CBD: cannabidiol; CBN: cannabinol; CBC: cannabichromene; Cl: chlorophyll A).

primary fibroblasts = test: Summary of examples: UVB radiation of primary fibroblasts; assay type: cell-based; details: summary statement on the examples
[2] = Spectrofluorimetric quantification of emission in hydroalcoholic standard solutions; assay type: physicochemical
Source text: as §1, §2

[3] = In vitro ROS production by colorimetric Nitro Blue Tetrazolium (NBT) oxidation in hydroalcoholic solution; details: excited with UV light (310 nm), FIG. 4
Source text: NBT is a specific molecular sensor for superoxide anion production, which is the first type of ROS produced during the reduction of molecular oxygen to generate water. In the presence of superoxide anion, NBT, a colorless molecule in its reduced state, oxidizes to form a chromophore with an absorption peak at 540 nm. The degree of oxidation, and therefore the absorbance at 540 nm, is directly proportional to ROS production. […] However, the combination of flavonoids/cannabinoids, chlorophyll A, and PpIX excited with UV light (310 nm) induces a potent and significant ROS production equivalent to that obtained by exciting PpIX with red light (FIG. 4).
FIG. 4. Quantification of in vitro ROS production measured as absorbance at 540 nm of Nitro Blue Tetrazolium (NBT) compound oxidized by […] production in hydroalcoholic solutions of different compound combinations under basal conditions or excited with UV (310 nm) or red (635 nm) light. Results are expressed as mean+/−standard deviation of three independent experiments. *, […]; ***, P≤0.01 (PpIX: Protoporphyrin IX; Mn: Morin; CBD: cannabidiol; Cl: chlorophyll A).

With C=Cc1c(C)c2cc3nc(c4c5[n-]c(cc6nc(cc1[n-]2)C(C=O)=C6CC)c(C)c5C(=O)[C@@H]4C(=O)OC)[C@@H](CCC(=O)OC/C=C(\C)CCC[C@H](C)CCC[C@H](C)CCCC(C)C)[C@@H]3C.[Mg+2] [chlorophyll B] as the molecule, how does the absorption peaks [1] read?
Its absorption peaks is “around 450 nm”.

Which results are given for C=Cc1c(C)c2cc3nc(c4c5[n-]c(cc6nc(cc1[n-]2)C(C)=C6CC)c(C)c5C(=O)[C@@H]4C(=O)OC)[C@@H](CCC(=O)OC/C=C(\C)CCC[C@H](C)CCC[C@H](C)CCCC(C)C)[C@@H]3C.[Mg+2] [chlorophyll A]?
protection of cells from UVB radiation (primary fibroblasts): neither capable of protecting against UVB radiation; stimulation of proliferation and extracellular matrix protein synthesis (primary fibroblasts): nor stimulating cells in any way; emission at 460 nm (blue light) ([2]; excited by 280 and 320 nm light (UVB/A), FIG. 3C): no emission of blue light; emission at 625 nm (red light) ([2]; excited by 460 nm light (blue), FIG. 3D): strong emission of red light; absorption peaks [1]: around 450 nm; ROS production (NBT oxidation, absorbance at 540 nm) [3]: unable to induce significant NBT oxidation
